# According to patent publication US20110229531A1, “ANTI-PROTOZOA COMPOUNDS” (priority 2009, published 2011):
# System: Acanthamoeba
# Assay: Acanthamoeba growth inhibition, alamarBlue reduction
# Type: cell-based, Acanthamoeba castellanii
# Source text: Furthermore, inhibition was ablated in a dose dependent manner by the addition of histidine to the medium.
Compound,"effect of 3AT on growth in the presence of histidine (10 mM histidine added, 0.98 mM 3-AT, alamarBlue reduction)","IC20 (Acanthamoeba, read-out: IC20 of 3-AT) [µM]","IC50 (Acanthamoeba, absence of histidine, percentage of alamarBlue reduction) [µM]",concentration required to significantly (p<0.05) inhibit A. castellanii growth (in the presence of 1 mM Histidine) [mM],"growth of Acanthamoeba (medium without histidine, inhibition ablated dose dependently by added histidine)","concentration that significantly (p<0.05) inhibited A. castellanii growth (no histidine, compared with untreated control cultures, dose dependent) [mM]",toxicity of histidine to Acanthamoeba (100 mM histidine)
"Nc1nc[nH]n1 [3-AT, 3-amino-1,2,4-triazole]",significantly (p<0.05) ablated the effect of 3AT,980,15 to 31,≥ 0.06,inhibits growth,≥ 0.00095,
N[C@@H](Cc1c[nH]cn1)C(=O)O [histidine],,,,,,,toxic
